{
  "source": "patent US8673949B2",
  "about": "(Bristol-Myers Squibb Company, priority 2008, dated 2014)",
  "key": {"[1]": {"settings": "bolus IV 5 mpk, cited from earlier work; for Brain conc / Plasma conc: WO 03/074053 data converted to nM; for Brain-to-plasma Ratio: WO 03/074053 data"}, "[2]": {"assay": "Plasma, brain and liver levels after oral gavage in C57BL/6 mice", "format": "in vivo, mouse", "settings": "C57BL/6 mice; for Brain/Liver Ratio / Kp at 1 h / concentration at 1 h / concentration at 1 hr: 1 hr; for Kp at 1 h: brain and plasma", "from_the_text": "Below, we first report the experimental detail for preparation and isolation of Compound III, and then the biological, in vivo data is described."}, "[3]": {"assay": "Plasma, brain and liver levels after bolus IV administration in nude mice"}, "[4]": {"test_system": "PrP T44 Tau transgenic mice", "settings": "treatment for 3 months; cited from earlier work"}, "in vivo": {"assay": "in vivo", "settings": "nude, mouse, iv"}, "[5]": {"settings": "mouse, in vivo, iv; for Brain-to-Liver Ratio: nude, 12 mg/kg"}, "[6]": {"test_system": "paclitaxel-induced peripheral neuropathy", "settings": "rats; cited from earlier work"}},
  "note": "Several values for one entry are separate records, joined by “and”; a condition that tells them apart may be missing. Identical values can stand only once. Like-named read-outs stand apart in the source and are kept apart here.",
  "data": [
    {"compound": "CCC[C@H]1C(=O)C(C)(C)[C@@H](O)CC(=O)O[C@H](/C(C)=C/c2csc(C)n2)CC=C(C)CCC[C@H](C)[C@@H]1O", "note": "(single isomer, unassigned) [Compound III, 4,8-dihydroxy-16-(1-methyl-2-(2-methyl-4-thiazolyl)-ethenyl)-1-oxa-7-(1-propyl)-5,5,9,13-tetramethyl-cyclohexadec-13-ene-2,6-dione]", "values": [
      {"measurement": "Brain conc", "setting": "[1]; 0.17 hr", "result": 580, "unit": "nM"},
      {"measurement": "Plasma conc", "setting": "[1]; 0.17 hr", "result": 1540, "unit": "nM"},
      {"measurement": "Brain-to-plasma Ratio", "setting": "[1]; 0.17 hr", "result": 0.4},
      {"measurement": "Brain conc", "setting": "[1]; 0.67 hr", "result": 1150, "unit": "nM"},
      {"measurement": "Plasma conc", "setting": "[1]; 0.67 hr", "result": 580, "unit": "nM"},
      {"measurement": "Brain-to-plasma Ratio", "setting": "[1]; 0.67 hr", "result": 2},
      {"measurement": "Brain-to-plasma Ratio", "setting": "[1]; […]", "result": 1.3},
      {"measurement": "brain retention", "setting": "[2]; oral 10 and 35 mpk, no measureable brain levels at 24 h", "result": "poor brain retention"},
      {"measurement": "brain half life compared with epothilone D", "setting": "[2]; oral 35 mpk, FIG. 9", "result": "significantly shorter than epothilone D"},
      {"measurement": "Brain/Liver Ratio", "setting": "[2]; oral gavage 10 mpk", "result": 0.1},
      {"measurement": "Brain conc", "setting": "[2]; oral gavage 10 mpk, 5 hr", "result": "(3.7 nM)"},
      {"measurement": "Brain conc", "setting": "[2]; oral gavage 10 mpk, 7 hr", "result": "(3.7 nM)"},
      {"measurement": "Brain conc", "setting": "[2]; oral gavage 10 mpk, 24 hr", "result": "(3.7 nM)"},
      {"measurement": "Plasma conc", "setting": "[2]; oral gavage 10 mpk, 24 hr", "result": "(0.2 nM)"},
      {"measurement": "Brain/Liver Ratio", "setting": "[2]; oral gavage 35 mpk", "result": 0.4},
      {"measurement": "Brain conc", "setting": "[2]; oral gavage 35 mpk, 24 hr", "result": "<LLQ"},
      {"measurement": "Kp at 1 h", "setting": "[2]; mouse, 10 mg/kg, oral gavage 10 mpk, read-out: Brain/Plasma Ratio", "result": 0.8},
      {"measurement": "Kp at 1 h", "setting": "[2]; mouse, 35 mg/kg, oral gavage 35 mpk, read-out: Brain/Plasma Ratio", "result": 2.3},
      {"measurement": "concentration at 1 h", "setting": "[2]; mouse, brain, 10 mg/kg, oral gavage 10 mpk, read-out: Brain conc", "result": 9.6, "unit": "nM"},
      {"measurement": "concentration at 1 hr", "setting": "[2]; mouse, brain, 35 mg/kg, oral gavage 35 mpk, read-out: Brain conc", "result": 67.7, "unit": "nM"},
      {"measurement": "concentration at 5 hr", "setting": "[2]; mouse, brain, 35 mg/kg, oral gavage 35 mpk, 5 hr, read-out: Brain conc", "result": 4.6, "unit": "nM"},
      {"measurement": "Kp at 5 h", "setting": "[2]; mouse, brain/plasma, 35 mg/kg, oral gavage 35 mpk, 5 hr, read-out: Brain/Plasma Ratio", "result": 1.4},
      {"measurement": "concentration at 1 h", "setting": "[2]; mouse, plasma, 10 mg/kg, oral gavage 10 mpk, read-out: Plasma conc", "result": 12.3, "unit": "nM"},
      {"measurement": "concentration at 5 hr", "setting": "[2]; mouse, plasma, 10 mg/kg, oral gavage 10 mpk, 5 hr, read-out: Plasma conc", "result": 1.3, "unit": "nM"},
      {"measurement": "concentration at 7 hr", "setting": "[2]; mouse, plasma, 10 mg/kg, oral gavage 10 mpk, 7 hr, read-out: Plasma conc", "result": 1.2, "unit": "nM"},
      {"measurement": "concentration at 1 hr", "setting": "[2]; mouse, plasma, 35 mg/kg, oral gavage 35 mpk, read-out: Plasma conc", "result": 47.7, "unit": "nM"},
      {"measurement": "concentration at 5 hr", "setting": "[2]; mouse, plasma, 35 mg/kg, oral gavage 35 mpk, 5 hr, read-out: Plasma conc", "result": 3, "unit": "nM"},
      {"measurement": "concentration at 24 hr", "setting": "[2]; mouse, plasma, 35 mg/kg, oral gavage 35 mpk, 24 hr, read-out: Plasma conc", "result": 0.7, "unit": "nM"}
    ]},
    {"compound": "C/C(=C\\c1csc(CN)n1)[C@@H]1C[C@@H]2O[C@]2(C)CCC[C@H](C)[C@H](O)[C@@H](C)C(=O)C(C)(C)[C@@H](O)CC(=O)O1", "note": "[Compound II]", "values": [
      {"measurement": "Brain-to-Liver Ratio", "setting": "[3]; bolus IV 1 mpk, 6 hr", "result": 0.01},
      {"measurement": "Brain-to-Liver Ratio", "setting": "[3]; bolus IV 1 mpk, 24 hr", "result": 0.02},
      {"measurement": "brain levels relative to peripheral tissue (ratio of brain-to-liver compound levels)", "setting": "[3]; bolus IV, particularly at later times", "result": "modest brain levels relative to peripheral tissue"},
      {"measurement": "concentration at 6 h", "setting": "[3]; nude, mouse, in vivo, iv, 1 mg/kg, Brain conc, bolus IV 1 mpk, 6 hr", "result": 6.8, "unit": "nM"},
      {"measurement": "concentration at 24 h", "setting": "[3]; nude, mouse, in vivo, iv, 1 mg/kg, Brain conc, bolus IV 1 mpk, 24 hr", "result": 1.3, "unit": "nM"},
      {"measurement": "Kp at 6 h", "setting": "[3]; nude, mouse, in vivo, iv, 1 mg/kg, Brain-to-plasma Ratio, bolus IV 1 mpk, 6 hr", "result": 2.1},
      {"measurement": "Kp at 24 h", "setting": "[3]; nude, mouse, in vivo, iv, 1 mg/kg, Brain-to-plasma Ratio, bolus IV 1 mpk, 24 hr", "result": 1.2},
      {"measurement": "concentration at 6 h", "setting": "[3]; nude, mouse, in vivo, iv, 1 mg/kg, Plasma conc, bolus IV 1 mpk, 6 hr", "result": 3, "unit": "nM"},
      {"measurement": "concentration at 24 h", "setting": "[3]; nude, mouse, in vivo, iv, 1 mg/kg, Plasma conc, bolus IV 1 mpk, 24 hr", "result": 1, "unit": "nM"}
    ]},
    {"compound": "CC(=O)O[C@H]1C(=O)[C@@]2(C)[C@H]([C@H](OC(=O)c3ccccc3)[C@]3(O)C[C@H](OC(=O)[C@H](O)[C@@H](NC(=O)c4ccccc4)c4ccccc4)C(C)=C1C3(C)C)[C@]1(OC(C)=O)CO[C@@H]1C[C@@H]2O", "note": "[Paclitaxel, paclitaxel]", "values": [
      {"measurement": "Tau pathology (spheroids)", "setting": "[4]", "result": "unaffected"},
      {"measurement": "microtubule numbers and axonal transport in the ventral roots of the spinal cord", "setting": "[4]", "result": "increased microtubule numbers and axonal transport"},
      {"measurement": "motor dysfunction", "setting": "[4]", "result": "reduced motor dysfunction"},
      {"measurement": "concentration at 1 h", "setting": "in vivo; 4 mg/kg, Brain conc", "result": 47, "unit": "nM"},
      {"measurement": "concentration at 6 h", "setting": "in vivo; 4 mg/kg, Brain conc", "result": 16, "unit": "nM"},
      {"measurement": "concentration at 24 h", "setting": "in vivo; 4 mg/kg, Brain conc", "result": 15, "unit": "nM"},
      {"measurement": "Kp at 1 h", "setting": "in vivo; 4 mg/kg, Brain-to-plasma Ratio", "result": 0.1},
      {"measurement": "Kp at 6 h", "setting": "in vivo; 4 mg/kg, Brain-to-plasma Ratio", "result": 0.37},
      {"measurement": "Kp at 24 h", "setting": "in vivo; 4 mg/kg, Brain-to-plasma Ratio", "result": 1.25},
      {"measurement": "concentration at 1 h", "setting": "in vivo; 4 mg/kg, Plasma conc", "result": 447, "unit": "nM"},
      {"measurement": "concentration at 6 h", "setting": "in vivo; 4 mg/kg, Plasma conc", "result": 43, "unit": "nM"},
      {"measurement": "concentration at 24 h", "setting": "in vivo; 4 mg/kg, Plasma conc", "result": 12, "unit": "nM"},
      {"measurement": "brain levels", "setting": "[5]; 4 mg/kg", "result": "low"}
    ]},
    {"compound": "NAP: a peptide of sequence NAPVSIPQ", "values": [
      {"measurement": "protection against paclitaxel-induced peripheral neuropathy", "setting": "[6]", "result": "able to protect against paclitaxel-induced peripheral neuropathy"}
    ]},
    {"compound": "C/C(=C\\c1csc(C)n1)[C@@H]1C[C@@H]2O[C@]2(C)CCC[C@H](C)[C@H](O)[C@@H](C)C(=O)C(C)(C)[C@@H](O)CC(=O)N1", "note": "[Ixabepilone, (1S,3S,7S,10R,11S,12S,16R)-7,11-dihydroxy-8,8,10,12,16-pentamethyl-3-[(1E)-1-methyl-2-(2-methyl-4-thiazolyl)ethenyl]-17-oxa-4-azabicyclo[14.1.0]heptadecane-5,9-dione]", "values": [
      {"measurement": "Kp at 1 h", "setting": "in vivo; 12 mg/kg", "result": 0.73},
      {"measurement": "Kp at 2 h", "setting": "in vivo; 12 mg/kg", "result": 2.1},
      {"measurement": "Kp at 6 h", "setting": "in vivo; 12 mg/kg", "result": 7},
      {"measurement": "Kp at 24 h", "setting": "in vivo; 12 mg/kg", "result": 30},
      {"measurement": "Kp at […]", "setting": "in vivo; 12 mg/kg", "result": "0.05 and 0.16"},
      {"measurement": "concentration at 1 h", "setting": "in vivo; 12 mg/kg, Brain conc", "result": 284, "unit": "nM"},
      {"measurement": "concentration at 2 h", "setting": "in vivo; 12 mg/kg, Brain conc", "result": 360, "unit": "nM"},
      {"measurement": "concentration at 6 h", "setting": "in vivo; 12 mg/kg, Brain conc", "result": 371, "unit": "nM"},
      {"measurement": "concentration at 24 h", "setting": "in vivo; 12 mg/kg, Brain conc", "result": 236, "unit": "nM"},
      {"measurement": "concentration at 1 h", "setting": "in vivo; 12 mg/kg, Plasma conc", "result": 390, "unit": "nM"},
      {"measurement": "concentration at 2 h", "setting": "in vivo; 12 mg/kg, Plasma conc", "result": 171, "unit": "nM"},
      {"measurement": "concentration at 6 h", "setting": "in vivo; 12 mg/kg, Plasma conc", "result": 53, "unit": "nM"},
      {"measurement": "concentration at 24 h", "setting": "in vivo; 12 mg/kg, Plasma conc", "result": 8, "unit": "nM"},
      {"measurement": "brain levels relative to peripheral tissue (ratio of brain-to-liver compound levels)", "setting": "[5]", "result": "modest brain levels relative to peripheral tissue"},
      {"measurement": "Brain-to-Liver Ratio", "setting": "[5]; 1 h", "result": 0.07},
      {"measurement": "Brain-to-Liver Ratio", "setting": "[5]; 2 h", "result": 0.11},
      {"measurement": "Brain-to-Liver Ratio", "setting": "[5]; 6 h", "result": 0.30},
      {"measurement": "Brain-to-Liver Ratio", "setting": "[5]; 24 h", "result": 1.2}
    ]}
  ]
}
